Source: patent publication US20060194874A1, “Use of propionyl l-carnitine for the preparation of a medicament for the treatment of glaucoma” (priority 2002, published 2006)

Experiments:
[1] = tested on: ganglionic cells of the retina and/or astrocytes of the optic nerve; assay: In-vivo rat model of methylcellulose (MTC)-induced intraocular hypertension (experimental glaucoma): histology and TUNEL
Method: The effect of propionyl L-carnitine was evaluated in an in-vivo experimental rat model. This model of induction of programmed cell death (apoptosis) and/or necrosis of ganglionic cells of the retina and/or astrocytes of the optic nerve is described in the above-mentioned Acta Ophthalmologica Scandinavica, 1988, Supplement 27, 20-21 and Experimental Postgraduate Degree Thesis, Institute of Ophthalmology, “La Sapienza” University, Rome. Intraocular hypertension was induced by means of injecting methylcellulose (MTC) into the anterior chamber. The rats were divided into three groups: 1) untreated (blanks), 2) rats treated with 2% MTC (10 μL), and 3) rats treated with MTC and propionyl L-carnitine 0.15 mM final concentration injected into the anterior chamber. In semithin histological sections of untreated rat optic nerve (haematoxylin-eosin staining), normal longitudinal organisation of the astrocytes among the fibres was detected (FIG. 1A). In contrast, in rats treated with MTC, loss of cell organisation and the presence of necrotic astrocytes were detected (FIG. 1B).

[2] = tested on: 3T6 cells (murine fibroblast line); assay: Cell count with erythrosine stain, 3T6 cells grown in complete medium; type: cell-based; settings: 3T6 cells in complete medium, count 24 hours after administration
Method: 3T6 cells (murine fibroblast line) grown in complete medium (DMEM: 10% NBS, 2% PEST and 2% glutamine) were treated with propionyl L-carnitine 24 hours after plating the cells. 48 hours after plating (24 hours after administration of the substance), a cell count was performed on the cells thus treated with an erythrosine stain that detects cells that are no longer viable (diluted 1:5 with PBS A buffer) from which the cell survival data were obtained. As controls, we used cells cultivated in complete medium on which the cell count was performed, again 24 hours after plating.

[3] = tested on: 3T6 cells (murine fibroblast line); assay: Cell count with erythrosine staining, serum-deprived 3T6 cells (induced apoptosis); type: cell-based; settings: 0.25 mM, 0.55 mM, 1.1 mM
Method: In subsequent experiments, apoptosis was induced in 3T6 cells 24 hours after plating by means of serum deprivation, and simultaneously propionyl L-carnitine was added to the cells. Three different concentrations of the compound were used: 0.25 mM, 0.55 mM and 1.1 mM. 48 hours after plating (24 hours after administration of the substance) a cell count with erythrosine staining was performed. Cells grown in complete medium were taken as the negative control and serum-deprived cells as the positive control.

[4] = tested on: 3T6 cells (murine fibroblast line); assay: TUNEL reaction in vitro (chromatin status) in serum-deprived 3T6 cells; type: cell-based
Method: (§1) To assess the chromatin status (and thus the apoptosis) in serum-deprived 3T6 cells, and, in cells treated with propionyl L-carnitine, a TUNEL (terminal deoxynucleotidyl transferase-mediated dUTP-biotin end labelling) reaction was performed in vitro. TUNEL labelling is a technique that consists in the addition of nucleotides (conjugated with fluorescein) at the free 3′-OH extremities present in the fragmented DNA. This reaction is catalysed by the terminal enzyme transferase. The TUNEL technique was performed on untreated serum-deprived cells and on serum-deprived cells to which the three concentrations (0.25 mM, 0.55 mM, and 1.1 mM) of propionyl L-carnitine already used for the cell counts were administered. […] The binding of the primary antibody with its epitope to BAX was detected with a secondary antibody that exploits DAB ([…]) staining. The cells subjected to cytoimmunological localisation were deprived of serum 24 hours after plating and treated with propionyl L-carnitine at the above-mentioned concentrations. Cells grown in complete medium were used as the positive control, while the negative control was prepared with cells deprived of serum 24 hours after plating.

[5] = tested on: BAX; assay: Cytoimmunological localisation of BAX (DAB staining, haematoxylin counterstain) in serum-deprived 3T6 cells; type: cell-based, murine
Method: as §1
Counterstaining with a nuclear dye such as haematoxylin was also performed in order to confirm the fact that the staining obtained with cytoimmunological localisation was effectively cytoplasmic. On the basis of the data reported in the literature, in fact, it is known that BAX is a cytoplasmically localised protein. […] On comparing the data obtained in the cell counts, with the TUNEL technique and with cytoimmunological localisation, an improvement can be found in cell survival after treatment with propionyl L-carnitine. This proves evident both in cells grown in complete medium and in cells grown in conditions in which apoptosis is induced as a result of serum deprivation.

[6] = tested on: patients suffering from glaucoma; assay: Clinical trial: ocular colour Doppler ultrasonography, visual field (Octopus) and intraocular pressure; type: in vivo, human
Method: Ten patients suffering from glaucoma were treated with propionyl L-carnitine (DROMOS®) by mouth at a dose of 2 g/day for periods ranging from 15 to 50 days. Ocular arterial flow was studied by means of ocular colour Doppler ultrasonography. The posterior (nasal) ciliary artery, the posterior (temporal) ciliary artery, the central retinal and ophthalmic arteries were examined. Systolic and diastolic flow rates were expressed in cm/sec; the ratio (systolic—diastolic flow)/systolic flow expresses the peripheral resistance index. Visual fields before and after treatment with DROMOS® were compared.

[7] = ten glaucoma patients, 2 g/day by mouth, 15 to 50 days

CCC(=O)O[C@H](CC(=O)[O-])C[N+](C)(C)C [propionyl L-carnitine]
organisation of astrocytes in semithin histological sections of optic nerve ([1]; rats treated with 2% MTC (10 μL) and propionyl L-carnitine 0.15 mM final concentration, injected into the anterior chamber, haematoxylin-eosin, FIG. 1C): longitudinal organisation among the fibres | necrotic cells (astrocytes) in optic nerve sections ([1]; rats treated with 2% MTC and propionyl L-carnitine 0.15 mM, anterior chamber, FIG. 1C): no necrotic cells were detected | TUNEL fluorescence (apoptotic cells) in optic nerves ([1]; rats treated with MTC and propionyl L-carnitine 0.15 mM, anterior chamber, fluorescence microscopy, FIG. 2B): the presence of TUNEL fluorescence was not observed | cell growth (cell count) compared to untreated control cells [2]: an increase in cell growth | cell viability compared to negative control (complete medium) [3]: still less than that obtained in the negative control | cell mortality compared to serum-deprived cells (positive control) ([3]; count 24 hours after administration): a reduction in cell mortality | cytoprotective effect, dependence on concentration ([4]; 0.25 mM, 0.55 mM, 1.1 mM): increased with the increase in concentration | chromatin fragmentation (TUNEL fluorescence intensity) ([4]; serum-deprived 3T6 cells vs untreated serum-deprived cells, FIG. 3B): a marked reduction in chromatin fragmentation | alterations of chromatin condensation (haematoxylin counterstaining) ([5]; serum-deprived 3T6 cells after treatment): tend to be reduced | BAX expression, dependence on concentration ([5]; serum-deprived 3T6 cells, 0.25 mM, 0.55 mM, 1.1 mM): proportional to the different concentrations | expression of BAX compared to untreated serum-deprived cells ([5]; serum-deprived 3T6 cells, FIG. 4B): a lower expression of BAX | Visual field (Octopus) after treatment, MD ([6]; Patient 1, OS, 30 days of treatment, before treatment 2): 5.6 | Visual field (Octopus) after treatment, MS ([6]; Patient 1, OS, 30 days of treatment, before treatment 11.6): 20.2 | Posterior nasal ciliary artery resistance index (R.I.) after treatment ([6]; Patient 1, SN, 30 days, before treatment 0.63): 0.66 | Posterior nasal ciliary artery diastolic flow after treatment ([6]; Patient 1, SN, 30 days, before treatment 2.21): 5.75 cm/sec | Posterior nasal ciliary artery systolic flow after treatment ([6]; Patient 1, SN, 30 days, before treatment 5.96): 16.7 cm/sec | Posterior temporal ciliary artery resistance index (R.I.) after treatment ([6]; Patient 2, DX, 12 days, before treatment (SN) 0.67): 0.55 | Posterior temporal ciliary artery diastolic flow after treatment ([6]; Patient 2, DX, 12 days, before treatment (SN) 1.92): 3.86 cm/sec | Posterior temporal ciliary artery systolic flow after treatment ([6]; Patient 2, DX, 12 days, before treatment (SN) 5.75): 8.65 cm/sec | Visual field (Octopus) after treatment, MD ([6]; Patient 2, OD, 12 days of treatment, before treatment 11.1): 8.4 | Visual field (Octopus) after treatment, MS ([6]; Patient 2, OD, 12 days of treatment, before treatment 15.5): 16.2 | visual fields ([6]; subjects with stable glaucoma, 2 g/day by mouth): improves visual fields | intraocular pressure (IOP) [6, 7]: no significant reduction in IOP | ocular arterial flows [6, 7]: increases the flows | peripheral resistance index in the sectors affected [6, 7]: reduces the resistance index
